According to ChEMBL document CHEMBL3797202, “Novel Oxindole Sulfonamides and Sulfamides: EPZ031686, the First Orally Bioavailable Small Molecule SMYD3 Inhibitor” (ACS Med Chem Lett, 2016):

Assays:
[1] = biological target: T1, Histone-lysine N-methyltransferase NSD2 (Homo sapiens) (UniProt O96028); test: Inhibition of WHSC1 (unknown origin) at 10 uM relative to control
T1 sequence (whole entry): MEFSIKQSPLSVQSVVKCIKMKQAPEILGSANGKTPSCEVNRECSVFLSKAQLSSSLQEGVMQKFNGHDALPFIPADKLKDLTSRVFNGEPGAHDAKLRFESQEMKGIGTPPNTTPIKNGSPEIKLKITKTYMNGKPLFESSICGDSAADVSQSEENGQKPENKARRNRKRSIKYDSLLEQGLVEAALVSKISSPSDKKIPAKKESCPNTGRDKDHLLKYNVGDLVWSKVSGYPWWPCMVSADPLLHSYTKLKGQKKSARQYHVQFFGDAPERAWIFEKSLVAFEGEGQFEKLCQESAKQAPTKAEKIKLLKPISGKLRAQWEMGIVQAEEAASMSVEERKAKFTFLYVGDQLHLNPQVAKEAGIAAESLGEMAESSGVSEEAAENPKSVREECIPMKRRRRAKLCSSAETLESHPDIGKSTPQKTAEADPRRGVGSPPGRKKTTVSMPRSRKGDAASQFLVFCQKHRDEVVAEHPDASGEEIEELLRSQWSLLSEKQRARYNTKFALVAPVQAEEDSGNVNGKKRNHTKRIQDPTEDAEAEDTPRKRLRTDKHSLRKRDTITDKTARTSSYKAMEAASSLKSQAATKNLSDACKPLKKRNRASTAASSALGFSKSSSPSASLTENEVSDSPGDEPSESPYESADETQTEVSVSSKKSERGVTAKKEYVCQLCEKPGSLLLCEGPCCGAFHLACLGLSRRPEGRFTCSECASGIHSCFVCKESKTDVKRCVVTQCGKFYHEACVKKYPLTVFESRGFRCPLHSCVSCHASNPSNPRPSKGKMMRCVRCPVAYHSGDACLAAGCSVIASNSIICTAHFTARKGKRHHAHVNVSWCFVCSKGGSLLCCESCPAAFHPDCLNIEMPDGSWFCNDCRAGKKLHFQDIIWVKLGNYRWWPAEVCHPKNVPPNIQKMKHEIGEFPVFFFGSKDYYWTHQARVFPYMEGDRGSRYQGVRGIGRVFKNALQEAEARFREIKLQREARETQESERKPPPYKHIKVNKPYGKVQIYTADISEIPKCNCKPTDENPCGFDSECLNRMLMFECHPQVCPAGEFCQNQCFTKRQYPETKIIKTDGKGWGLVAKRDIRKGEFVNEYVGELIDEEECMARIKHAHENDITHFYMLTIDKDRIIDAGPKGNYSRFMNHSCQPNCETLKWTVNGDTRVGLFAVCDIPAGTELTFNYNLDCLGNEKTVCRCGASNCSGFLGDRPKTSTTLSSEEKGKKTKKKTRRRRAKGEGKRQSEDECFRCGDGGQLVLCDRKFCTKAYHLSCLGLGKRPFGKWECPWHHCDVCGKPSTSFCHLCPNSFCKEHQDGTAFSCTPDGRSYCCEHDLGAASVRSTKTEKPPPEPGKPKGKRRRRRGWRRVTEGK

[2] = biological target: T2, Histone-lysine N-methyltransferase EZH1 (Homo sapiens) (UniProt Q92800); test: Inhibition of EZH1 (unknown origin) at 10 uM relative to control
T2 sequence (whole entry): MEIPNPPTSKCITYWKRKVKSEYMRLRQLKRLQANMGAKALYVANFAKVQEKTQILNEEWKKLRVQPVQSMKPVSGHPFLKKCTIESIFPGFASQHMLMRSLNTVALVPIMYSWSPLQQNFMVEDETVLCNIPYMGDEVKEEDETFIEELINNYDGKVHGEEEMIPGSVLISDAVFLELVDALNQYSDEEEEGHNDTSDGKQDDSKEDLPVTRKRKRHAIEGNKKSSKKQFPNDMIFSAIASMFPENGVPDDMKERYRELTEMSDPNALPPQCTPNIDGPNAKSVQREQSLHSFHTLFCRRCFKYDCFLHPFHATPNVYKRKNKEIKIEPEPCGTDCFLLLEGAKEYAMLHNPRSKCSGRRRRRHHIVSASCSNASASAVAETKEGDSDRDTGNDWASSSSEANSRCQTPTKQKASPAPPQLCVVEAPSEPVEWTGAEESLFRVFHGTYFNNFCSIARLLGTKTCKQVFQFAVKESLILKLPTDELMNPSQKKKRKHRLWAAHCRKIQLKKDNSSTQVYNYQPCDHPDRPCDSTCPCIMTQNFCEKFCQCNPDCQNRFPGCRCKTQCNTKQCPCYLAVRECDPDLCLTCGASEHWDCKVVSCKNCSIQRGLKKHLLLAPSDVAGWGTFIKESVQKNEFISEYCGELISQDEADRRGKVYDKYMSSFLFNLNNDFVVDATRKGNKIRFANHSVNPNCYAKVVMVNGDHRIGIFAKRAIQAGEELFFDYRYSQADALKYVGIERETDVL

[3] = biological target: Histone-lysine N-methyltransferase, H3 lysine-36 specific (Homo sapiens) (UniProt Q96L73); test: Inhibition of NSD1 (unknown origin) at 10 uM relative to control
Histone-lysine N-methyltransferase, H3 lysine-36 specific (Homo sapiens), sequence (Q96L73 whole entry): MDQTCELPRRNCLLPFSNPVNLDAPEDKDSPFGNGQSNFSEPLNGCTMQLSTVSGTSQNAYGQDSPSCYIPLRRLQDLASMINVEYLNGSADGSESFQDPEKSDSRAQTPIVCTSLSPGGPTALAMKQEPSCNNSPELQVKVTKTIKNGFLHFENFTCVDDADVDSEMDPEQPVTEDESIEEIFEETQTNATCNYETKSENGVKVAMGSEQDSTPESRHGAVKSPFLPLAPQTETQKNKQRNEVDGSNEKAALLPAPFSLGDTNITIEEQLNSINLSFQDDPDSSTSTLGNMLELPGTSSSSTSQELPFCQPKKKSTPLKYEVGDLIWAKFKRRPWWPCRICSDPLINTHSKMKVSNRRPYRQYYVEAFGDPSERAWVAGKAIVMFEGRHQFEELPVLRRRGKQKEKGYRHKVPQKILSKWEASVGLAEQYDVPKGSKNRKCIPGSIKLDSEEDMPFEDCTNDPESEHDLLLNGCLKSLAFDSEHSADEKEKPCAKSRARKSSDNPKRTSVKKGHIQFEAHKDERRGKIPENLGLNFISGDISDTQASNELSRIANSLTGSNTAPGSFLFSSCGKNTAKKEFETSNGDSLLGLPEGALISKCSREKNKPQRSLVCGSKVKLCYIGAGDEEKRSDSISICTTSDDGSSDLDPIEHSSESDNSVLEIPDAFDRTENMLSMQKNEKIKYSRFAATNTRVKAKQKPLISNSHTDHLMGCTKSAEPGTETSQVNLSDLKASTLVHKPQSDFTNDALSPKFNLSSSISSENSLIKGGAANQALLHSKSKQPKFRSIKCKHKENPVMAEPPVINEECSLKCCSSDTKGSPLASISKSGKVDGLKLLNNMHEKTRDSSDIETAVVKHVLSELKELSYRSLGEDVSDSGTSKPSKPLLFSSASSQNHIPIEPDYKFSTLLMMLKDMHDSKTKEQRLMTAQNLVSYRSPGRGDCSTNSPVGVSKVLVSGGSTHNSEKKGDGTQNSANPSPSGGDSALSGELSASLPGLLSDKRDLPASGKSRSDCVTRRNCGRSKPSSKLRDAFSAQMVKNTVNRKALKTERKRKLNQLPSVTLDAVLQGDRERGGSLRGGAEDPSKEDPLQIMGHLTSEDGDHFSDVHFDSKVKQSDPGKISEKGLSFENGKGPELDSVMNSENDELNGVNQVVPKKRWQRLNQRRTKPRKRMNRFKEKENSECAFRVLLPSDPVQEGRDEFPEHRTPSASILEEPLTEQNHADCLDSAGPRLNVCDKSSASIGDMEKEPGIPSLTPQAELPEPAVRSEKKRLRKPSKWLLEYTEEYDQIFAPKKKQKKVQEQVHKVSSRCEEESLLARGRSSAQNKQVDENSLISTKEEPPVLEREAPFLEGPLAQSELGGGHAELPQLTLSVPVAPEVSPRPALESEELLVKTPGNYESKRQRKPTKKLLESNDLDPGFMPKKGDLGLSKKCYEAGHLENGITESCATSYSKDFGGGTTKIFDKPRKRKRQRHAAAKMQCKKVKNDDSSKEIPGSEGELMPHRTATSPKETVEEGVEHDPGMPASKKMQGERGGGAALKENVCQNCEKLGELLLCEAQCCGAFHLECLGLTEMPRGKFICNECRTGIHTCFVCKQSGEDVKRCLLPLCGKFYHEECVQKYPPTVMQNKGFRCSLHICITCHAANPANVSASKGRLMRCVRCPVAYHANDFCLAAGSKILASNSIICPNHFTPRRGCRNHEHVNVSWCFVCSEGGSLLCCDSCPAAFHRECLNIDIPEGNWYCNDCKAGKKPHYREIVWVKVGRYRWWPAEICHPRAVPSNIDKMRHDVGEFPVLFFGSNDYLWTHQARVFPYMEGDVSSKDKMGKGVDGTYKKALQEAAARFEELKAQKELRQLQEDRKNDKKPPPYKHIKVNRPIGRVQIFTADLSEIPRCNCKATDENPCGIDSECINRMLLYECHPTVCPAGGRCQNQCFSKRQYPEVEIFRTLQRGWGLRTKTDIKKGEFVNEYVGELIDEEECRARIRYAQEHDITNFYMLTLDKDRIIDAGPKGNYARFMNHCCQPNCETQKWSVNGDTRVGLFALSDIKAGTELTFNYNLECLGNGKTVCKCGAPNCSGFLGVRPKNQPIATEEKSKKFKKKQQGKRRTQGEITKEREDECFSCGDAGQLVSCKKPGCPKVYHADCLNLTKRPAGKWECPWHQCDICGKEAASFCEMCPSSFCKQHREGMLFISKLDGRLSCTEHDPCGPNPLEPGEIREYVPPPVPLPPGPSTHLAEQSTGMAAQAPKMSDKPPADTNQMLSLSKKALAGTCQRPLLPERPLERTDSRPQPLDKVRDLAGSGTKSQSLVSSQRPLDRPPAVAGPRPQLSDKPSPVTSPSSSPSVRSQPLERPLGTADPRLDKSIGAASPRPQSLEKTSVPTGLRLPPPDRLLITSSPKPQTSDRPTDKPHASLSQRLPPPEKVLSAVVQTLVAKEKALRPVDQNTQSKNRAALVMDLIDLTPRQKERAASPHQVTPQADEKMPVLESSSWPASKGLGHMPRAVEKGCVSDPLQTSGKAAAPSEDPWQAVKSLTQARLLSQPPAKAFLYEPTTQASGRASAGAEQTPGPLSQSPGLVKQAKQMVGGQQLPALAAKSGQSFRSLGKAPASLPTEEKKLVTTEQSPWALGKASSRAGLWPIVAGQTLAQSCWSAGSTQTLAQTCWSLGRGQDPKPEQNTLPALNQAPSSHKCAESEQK

[4] = biological target: Histone-lysine N-methyltransferase, H3 lysine-79 specific (Homo sapiens) (UniProt Q8TEK3); test: Inhibition of DOT1L (unknown origin) at 10 uM relative to control
Histone-lysine N-methyltransferase, H3 lysine-79 specific (Homo sapiens), sequence (Q8TEK3 whole entry, looked up): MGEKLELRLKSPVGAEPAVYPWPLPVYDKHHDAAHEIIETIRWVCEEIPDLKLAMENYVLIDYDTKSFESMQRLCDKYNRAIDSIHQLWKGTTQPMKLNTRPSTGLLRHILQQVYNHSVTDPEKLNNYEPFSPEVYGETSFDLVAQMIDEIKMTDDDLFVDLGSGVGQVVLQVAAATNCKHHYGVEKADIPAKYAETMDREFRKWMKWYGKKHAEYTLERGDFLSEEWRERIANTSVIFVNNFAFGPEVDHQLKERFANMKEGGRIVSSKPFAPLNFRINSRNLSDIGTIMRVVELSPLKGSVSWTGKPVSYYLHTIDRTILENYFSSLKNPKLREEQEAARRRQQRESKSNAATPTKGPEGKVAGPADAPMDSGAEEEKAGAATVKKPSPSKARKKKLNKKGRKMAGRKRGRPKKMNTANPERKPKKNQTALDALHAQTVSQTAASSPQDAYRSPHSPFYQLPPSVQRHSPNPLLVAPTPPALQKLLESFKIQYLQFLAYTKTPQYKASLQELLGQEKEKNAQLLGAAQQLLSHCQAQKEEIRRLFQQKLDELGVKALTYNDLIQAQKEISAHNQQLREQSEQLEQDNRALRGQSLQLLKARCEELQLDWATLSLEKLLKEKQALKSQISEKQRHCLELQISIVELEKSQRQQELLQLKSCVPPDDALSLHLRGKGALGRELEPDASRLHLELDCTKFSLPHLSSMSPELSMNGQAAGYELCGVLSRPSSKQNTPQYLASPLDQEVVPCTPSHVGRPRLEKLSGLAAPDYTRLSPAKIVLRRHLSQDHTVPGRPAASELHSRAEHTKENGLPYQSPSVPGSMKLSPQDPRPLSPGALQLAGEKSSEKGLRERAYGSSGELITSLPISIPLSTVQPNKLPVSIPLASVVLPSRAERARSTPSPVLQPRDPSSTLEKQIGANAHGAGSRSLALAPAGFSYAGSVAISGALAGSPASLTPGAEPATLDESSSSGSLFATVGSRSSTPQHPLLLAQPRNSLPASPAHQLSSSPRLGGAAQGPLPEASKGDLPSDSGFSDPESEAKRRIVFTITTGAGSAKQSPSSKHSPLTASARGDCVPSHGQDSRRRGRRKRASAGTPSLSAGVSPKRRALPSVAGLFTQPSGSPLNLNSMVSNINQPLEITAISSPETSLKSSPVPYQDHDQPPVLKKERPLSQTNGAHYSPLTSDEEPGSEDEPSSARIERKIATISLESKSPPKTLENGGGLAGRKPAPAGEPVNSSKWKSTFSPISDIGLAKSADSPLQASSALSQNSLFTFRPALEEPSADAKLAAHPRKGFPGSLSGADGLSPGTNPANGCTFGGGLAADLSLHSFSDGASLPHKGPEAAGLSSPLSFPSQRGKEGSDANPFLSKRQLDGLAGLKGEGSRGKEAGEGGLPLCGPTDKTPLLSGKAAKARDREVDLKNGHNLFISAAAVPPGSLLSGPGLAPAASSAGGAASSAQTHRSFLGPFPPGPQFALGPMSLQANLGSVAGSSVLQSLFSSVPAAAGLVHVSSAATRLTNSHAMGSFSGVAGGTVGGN

[5] = biological target: T3, Protein arginine N-methyltransferase 7 (Homo sapiens) (UniProt Q9NVM4); test: Inhibition of PRMT7 (unknown origin) at 10 uM relative to control
T3 sequence (whole entry): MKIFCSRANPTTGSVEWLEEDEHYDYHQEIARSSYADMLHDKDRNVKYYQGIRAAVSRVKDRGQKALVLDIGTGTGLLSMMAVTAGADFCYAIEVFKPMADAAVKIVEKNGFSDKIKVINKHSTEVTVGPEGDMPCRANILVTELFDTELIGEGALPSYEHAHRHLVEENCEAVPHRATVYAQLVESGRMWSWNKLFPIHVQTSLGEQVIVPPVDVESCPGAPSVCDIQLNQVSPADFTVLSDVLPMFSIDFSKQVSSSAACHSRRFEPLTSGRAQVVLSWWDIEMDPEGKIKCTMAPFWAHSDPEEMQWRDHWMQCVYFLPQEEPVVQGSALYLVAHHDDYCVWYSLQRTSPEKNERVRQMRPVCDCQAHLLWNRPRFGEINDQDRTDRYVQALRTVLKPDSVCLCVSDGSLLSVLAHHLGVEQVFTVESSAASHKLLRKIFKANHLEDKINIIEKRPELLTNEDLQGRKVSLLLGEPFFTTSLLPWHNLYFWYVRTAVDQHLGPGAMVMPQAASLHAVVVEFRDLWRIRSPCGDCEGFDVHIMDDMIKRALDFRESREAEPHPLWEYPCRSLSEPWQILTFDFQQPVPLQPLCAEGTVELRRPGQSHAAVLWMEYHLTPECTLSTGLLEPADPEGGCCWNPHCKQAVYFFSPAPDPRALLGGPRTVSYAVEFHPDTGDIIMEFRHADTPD

[6] = biological target: Histone-lysine N-methyltransferase EZH2 (Homo sapiens) (UniProt Q15910); test: Inhibition of EZH2 (unknown origin) at 10 uM relative to control
Histone-lysine N-methyltransferase EZH2 (Homo sapiens), sequence (Q15910 whole entry, looked up): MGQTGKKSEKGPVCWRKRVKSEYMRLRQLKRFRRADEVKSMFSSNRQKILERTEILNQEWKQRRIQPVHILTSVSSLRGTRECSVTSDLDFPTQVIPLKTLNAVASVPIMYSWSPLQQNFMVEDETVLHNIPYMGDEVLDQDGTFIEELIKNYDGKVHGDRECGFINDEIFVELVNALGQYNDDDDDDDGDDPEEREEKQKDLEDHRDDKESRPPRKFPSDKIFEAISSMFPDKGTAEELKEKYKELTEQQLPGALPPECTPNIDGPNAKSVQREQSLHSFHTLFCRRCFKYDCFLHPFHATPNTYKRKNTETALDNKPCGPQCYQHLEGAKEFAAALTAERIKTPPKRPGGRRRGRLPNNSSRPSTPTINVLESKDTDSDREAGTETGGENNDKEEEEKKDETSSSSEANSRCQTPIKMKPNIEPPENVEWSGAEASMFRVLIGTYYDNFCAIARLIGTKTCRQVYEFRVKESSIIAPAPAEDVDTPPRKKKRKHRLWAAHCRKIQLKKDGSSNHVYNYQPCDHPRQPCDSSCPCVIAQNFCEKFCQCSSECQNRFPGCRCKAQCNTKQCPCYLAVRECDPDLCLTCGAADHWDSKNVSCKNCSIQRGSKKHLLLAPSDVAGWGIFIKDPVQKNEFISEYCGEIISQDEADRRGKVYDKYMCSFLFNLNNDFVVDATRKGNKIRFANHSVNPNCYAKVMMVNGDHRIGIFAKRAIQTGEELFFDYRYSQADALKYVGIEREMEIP

Measured: inhibition

O=C1Cc2cc(C(=O)N[C@H]3C[C@H]4CC[C@@H](C3)N4S(=O)(=O)N3CCC(NCc4ccccc4)CC3)c(Cl)cc2N1
< 30%: all assays above

O=C1Cc2cc(C(=O)N[C@H]3C[C@H]4CC[C@@H](C3)N4S(=O)(=O)CC3CCN(CCCC(F)(F)F)CC3)c(Cl)cc2N1
< 30%: all assays above
